Experimental data: PubChem BioAssay AID330 (DTP/NCI, 2004)
Where “and” joins values, the source holds several entries; their conditions need not be identical. Equal entries are not always repeated. Toxic doses and inconclusive results are not listed. Rule for the calls: active = survival T/C of 150% or more; inactive = T/C below 125% in these data. Peptide text beside a SMILES is read from it.

Tested on: P388 leukemia ip, CD2F1 mice, survival T/C
Assay: NCI In Vivo Anticancer Drug Screen. Data for tumor model P388 Leukemia (intraperitoneal) in CD2F1 (CDF1) mice
Conditions: endpoint: median survival time, higher = longer survival
How it was run: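 Mice carrying the transplanted tumor received test compound or vehicle. Survival was recorded in each group, and the value is the treated-group measurement divided by that of the vehicle-treated control group.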

[1] = dose: 50.0 mg/kg/injection, schedule: Q01DX009 (ip), vehicle: saline
[2] = dose: 100.0 mg/kg/injection, schedule: Q01DX009 (ip), vehicle: saline
[3] = dose: 200.0 mg/kg/injection, schedule: Q01DX009 (ip), vehicle: saline
[4] = dose: 15.0 mg/kg/injection, schedule: Q01DX005 (ip), vehicle: saline with Tween-80
[5] = dose: 30.0 mg/kg/injection, schedule: Q01DX005 (ip), vehicle: saline with Tween-80
[6] = dose: 60.0 mg/kg/injection, schedule: Q01DX005 (ip), vehicle: saline with Tween-80
[7] = dose: 120.0 mg/kg/injection, schedule: Q01DX005 (ip), vehicle: saline with Tween-80
[8] = dose: 240.0 mg/kg/injection, schedule: Q01DX005 (ip), vehicle: saline with Tween-80
[9] = dose: 50.0 mg/kg/injection, schedule: Q01DX009 (ip), vehicle: Klucel (hydroxypropylcellulose) (HPC)
[10] = dose: 100.0 mg/kg/injection, schedule: Q01DX009 (ip), vehicle: Klucel (hydroxypropylcellulose) (HPC)
[11] = dose: 200.0 mg/kg/injection, schedule: Q01DX009 (ip), vehicle: Klucel (hydroxypropylcellulose) (HPC)
[12] = dose: 50.0 mg/kg/injection, schedule: Q01DX005 (ip), vehicle: saline
[13] = dose: 100.0 mg/kg/injection, schedule: Q01DX005 (ip), vehicle: saline
[14] = dose: 200.0 mg/kg/injection, schedule: Q01DX005 (ip), vehicle: saline
[15] = dose: 50.0 mg/kg/injection, schedule: Q04DX003 (ip), vehicle: saline with Tween-80
[16] = dose: 100.0 mg/kg/injection, schedule: Q04DX003 (ip), vehicle: saline with Tween-80
[17] = dose: 25.0 mg/kg/injection, schedule: Q01DX005 (ip), vehicle: saline
[18] = dose: 100.0 mg/kg/injection, schedule: Q01DX009 (ip), vehicle: saline with Tween-80
[19] = dose: 200.0 mg/kg/injection, schedule: Q01DX009 (ip), vehicle: saline with Tween-80
[20] = dose: 200.0 mg/kg/injection, schedule: Q04DX003 (ip), vehicle: saline with Tween-80

Measured: T/C

CCC1(c2ccccc2)C(=O)NC(=O)N(CN2CCOCC2)C1=O (stereo unspecified)
inactive: dose: 60.0 mg/kg/injection, schedule: Q01DX005 (ip), vehicle: Klucel (hydroxypropylcellulose) (HPC) 100 % of control | dose: 120.0 mg/kg/injection, schedule: Q01DX005 (ip), vehicle: Klucel (hydroxypropylcellulose) (HPC) 100 % of control | dose: 240.0 mg/kg/injection, schedule: Q01DX005 (ip), vehicle: Klucel (hydroxypropylcellulose) (HPC) 98 % of control

O=C(c1ccccc1)N(CCO)CCO
inactive: [1] 108 % of control | [2] 94 % of control | [3] 101 % of control

Oc1c(Cl)c2nc3ccccc3nc2c2ccccc12
inactive: [4] 100 % of control | [5] 102 % of control | [6] 88 % of control and 98 % of control

CC1CCC2(CC1)CC(=O)N(N)C2=O (stereo unspecified)
inactive: [6] 104 % of control | [7] 105 % of control | [8] 108 % of control

CCCCN(C(=O)N(CC)CC)[Si](C)(C)C
inactive: [9] 107 % of control | [10] 100 % of control | [11] 107 % of control

N#CC(C(=O)CCc1nc2ccccc2[nH]1)c1c(Cl)cccc1Cl (stereo unspecified)
inactive: [6] 109 % of control | [7] 101 % of control | [8] 102 % of control

CN=C(N)N/N=C/c1c2ccccc2cc2ccccc12
inactive: dose: 25.0 mg/kg/injection, schedule: Q04DX002 (ip), vehicle: saline with Tween-80 115 % of control | dose: 50.0 mg/kg/injection, schedule: Q04DX002 (ip), vehicle: saline with Tween-80 111 % of control | dose: 100.0 mg/kg/injection, schedule: Q04DX002 (ip), vehicle: saline with Tween-80 114 % of control

CC(=O)Nc1ccc(C(=O)N/N=C/c2ccc(O)cc2)cc1
inactive: [12] 99 % of control | [13] 102 % of control | [14] 100 % of control

CC(NNC(=S)N1CCCCCC1)c1ccc2ccccc2n1 (stereo unspecified)
inactive: dose: 50.0 mg/kg/injection, schedule: Q01DX005 (ip), vehicle: Klucel (hydroxypropylcellulose) (HPC) 111 % of control | dose: 100.0 mg/kg/injection, schedule: Q01DX005 (ip), vehicle: Klucel (hydroxypropylcellulose) (HPC) 110 % of control and 122 % of control and 95 % of control | dose: 200.0 mg/kg/injection, schedule: Q01DX005 (ip), vehicle: Klucel (hydroxypropylcellulose) (HPC) 112 % of control and 113 % of control

N=C(N)SC12CC3CC(CC(C3)C1)C2
inactive: dose: 7.5 mg/kg/injection, schedule: Q01DX005 (ip), vehicle: saline with Tween-80 93 % of control | [4] 98 % of control | [5] 99 % of control | [6] 98 % of control

NC(=O)Nc1ccc(/C=C\c2ccnc3ccccc23)cc1
inactive: dose: 25.0 mg/kg/injection, schedule: Q04DX003 (ip), vehicle: saline with Tween-80 96 % of control | [15] 93 % of control | [16] 89 % of control

COC(=O)CC1(O)C=C(C)C(=O)c2ccccc21 (stereo unspecified)
inactive: dose: 25.0 mg/kg/injection, schedule: Q01DX005 (ip), vehicle: saline with Tween-80 100 % of control | dose: 50.0 mg/kg/injection, schedule: Q01DX005 (ip), vehicle: saline with Tween-80 101 % of control | dose: 100.0 mg/kg/injection, schedule: Q01DX005 (ip), vehicle: saline with Tween-80 100 % of control | dose: 200.0 mg/kg/injection, schedule: Q01DX005 (ip), vehicle: saline with Tween-80 100 % of control | dose: 400.0 mg/kg/injection, schedule: Q01DX005 (ip), vehicle: saline with Tween-80 101 % of control

CCCCOc1ccc(C(=O)SCCCN=C(N)N)cc1
inactive: dose: 12.5 mg/kg/injection, schedule: Q01DX005 (ip), vehicle: saline 98 % of control | [17] 100 % of control | [12] 96 % of control and 98 % of control and 105 % of control | [13] 97 % of control

CC1=CC(=O)C2C1CC(=O)C1(C)C3C(=O)OC(C3C)C(O)C21 (stereo unspecified)
inactive: dose: 2.0 mg/kg/injection, schedule: Q01DX005 (ip), vehicle: Klucel (hydroxypropylcellulose) (HPC) 94 % of control | dose: 4.0 mg/kg/injection, schedule: Q01DX005 (ip), vehicle: Klucel (hydroxypropylcellulose) (HPC) 100 % of control | dose: 8.0 mg/kg/injection, schedule: Q01DX005 (ip), vehicle: Klucel (hydroxypropylcellulose) (HPC) 103 % of control | dose: 16.0 mg/kg/injection, schedule: Q01DX005 (ip), vehicle: Klucel (hydroxypropylcellulose) (HPC) 98 % of control | dose: 32.0 mg/kg/injection, schedule: Q01DX005 (ip), vehicle: Klucel (hydroxypropylcellulose) (HPC) 100 % of control

CC1CC(C)(C)N=C(CCC2CCCC2=O)O1 (stereo unspecified)
inactive: [18] 91 % of control | [16] 95 % of control | [19] 100 % of control | [20] 100 % of control | dose: 400.0 mg/kg/injection, schedule: Q01DX009 (ip), vehicle: saline with Tween-80 104 % of control | dose: 400.0 mg/kg/injection, schedule: Q04DX003 (ip), vehicle: saline with Tween-80 104 % of control

O=[N+]([O-])c1ccc(N/N=C(\C(=N/Nc2ccc([N+](=O)[O-])cc2[N+](=O)[O-])c2ccccc2)c2ccccc2)c([N+](=O)[O-])c1
inactive: [15] 103 % of control | [16] 91 % of control | [20] 91 % of control

NC(CC(=O)O)C(=O)NC(CC(=O)O)C(=O)O (stereo not drawn) (H-Asp-Asp-OH; configuration not given here)
inactive: [12] 101 % of control | [13] 99 % of control | [14] 97 % of control

CC1(C)OCC(C2NC2C2COC(C)(C)O2)O1 (stereo unspecified)
inactive: [1] 108 % of control | [2] 110 % of control | [3] 104 % of control

CC(=O)Nc1ccc(/C=N/NC(=O)CC2CCCCC2)cc1
inactive: [6] 96 % of control | [7] 100 % of control | [8] 91 % of control

Nc1ncnc2c1ncn2C1OC(COS(N)(=O)=O)C(O)C1O (stereo unspecified)
inactive: dose: 0.02 mg/kg/injection, schedule: Q01DX005 (ip), vehicle: saline 98 % of control | dose: 0.04 mg/kg/injection, schedule: Q01DX005 (ip), vehicle: saline 103 % of control | dose: 0.09 mg/kg/injection, schedule: Q01DX005 (ip), vehicle: saline 119 % of control | dose: 0.18 mg/kg/injection, schedule: Q01DX001 (ip), vehicle: saline 109 % of control

CC(C)CC(NC(=O)CN)C(=O)O (stereo unspecified)
inactive: [17] 103 % of control | dose: 25.0 mg/kg/injection, schedule: Q01DX009 (ip), vehicle: saline with Tween-80 95 % of control | [12] 101 % of control | dose: 50.0 mg/kg/injection, schedule: Q01DX009 (ip), vehicle: saline with Tween-80 89 % of control | [13] 103 % of control | [18] 88 % of control | [14] 99 % of control | [19] 91 % of control

O=C(CCn1c(CN2CCN(C/C=C/c3ccccc3)CC2)nc2ccccc21)c1ccccc1
inactive: [9] 104 % of control | [10] 100 % of control | [11] 111 % of control

CN1CCc2c(c3ccccc3c3ccccc23)C1
inactive: dose: 0.09 mg/kg/injection, schedule: Q01DX009 (ip), vehicle: Klucel (hydroxypropylcellulose) (HPC) 99 % of control | dose: 0.19 mg/kg/injection, schedule: Q01DX009 (ip), vehicle: Klucel (hydroxypropylcellulose) (HPC) 107 % of control | dose: 0.39 mg/kg/injection, schedule: Q01DX009 (ip), vehicle: Klucel (hydroxypropylcellulose) (HPC) 104 % of control | dose: 0.78 mg/kg/injection, schedule: Q01DX009 (ip), vehicle: Klucel (hydroxypropylcellulose) (HPC) 102 % of control | dose: 1.56 mg/kg/injection, schedule: Q01DX009 (ip), vehicle: Klucel (hydroxypropylcellulose) (HPC) 104 % of control and 91 % of control | dose: 3.12 mg/kg/injection, schedule: Q01DX009 (ip), vehicle: Klucel (hydroxypropylcellulose) (HPC) 94 % of control | dose: 6.25 mg/kg/injection, schedule: Q01DX009 (ip), vehicle: Klucel (hydroxypropylcellulose) (HPC) 86 % of control and 96 % of control | dose: 12.5 mg/kg/injection, schedule: Q01DX009 (ip), vehicle: Klucel (hydroxypropylcellulose) (HPC) 104 % of control | dose: 25.0 mg/kg/injection, schedule: Q01DX009 (ip), vehicle: Klucel (hydroxypropylcellulose) (HPC) 113 % of control and 92 % of control | [9] 105 % of control
